Source: patent publication US8921385B2, “5-substituted quinazolinone derivatives and compositions comprising and methods of using the same” (Celgene Corporation, priority 2006, dated 2014)

melting point [°C]	SMILES
275 to 277	Cc1nc2cccc(CNC(=O)Cc3ccccc3)c2c(=O)n1C1CCC(=O)NC1=O (stereo not shown) [Example 6.38, N-[3-(2,6-Dioxo-Piperidin-3-yl)-2-Methyl-4-Oxo-3,4-Dihydro-Quinazolin-5-ylmethyl]-2-Phenyl-Acetamide]
228 to 230	CCc1nc2cccc(C)c2c(=O)n1C1CCC(=O)NC1=O (stereo not shown) [Example 6.13, 3-(2-Ethyl-5-Methyl-4-Oxo-4H-Quinazolin-3-yl)-Piperidine-2,6-Dione]
262 to 264	Cc1nc2cccc(CNC(=O)Cc3ccc(Cl)c(Cl)c3)c2c(=O)n1C1CCC(=O)NC1=O (stereo not shown) [Example 6.42, 2-(3,4-Dichloro-Phenyl)-N-[3-(2,6-Dioxo-Piperidin-3-yl)-2-Methyl-4-Oxo-3,4-Dihydro-Quinazolin-5-ylmethyl]-Acetamide]
261 to 263	Cc1nc2cccc(CNC(=O)c3ccccn3)c2c(=O)n1C1CCC(=O)NC1=O (stereo not shown) [Example 6.39, Pyridine-2-Carboxylic Acid [3-(2,6-Dioxo-Piperidin-3-yl)-2-Methyl-4-Oxo-3,4-Dihydro-Quinazolin-5-ylmethyl]-Amide]
291 to 293	CCOCC(=O)Nc1cccc2nc(C)n(C3CCC(=O)NC3=O)c(=O)c12 (stereo not shown) [Example 6.24, N-[3-(2,6-Dioxo-Piperidin-3-yl)-2-Methyl-4-Oxo-3,4-Dihydro-Quinazolin-5-yl]-2-Ethoxy-Acetamide]
190 to 192	CCCCc1nc2cccc(C)c2c(=O)n1C1CCC(=O)NC1=O (stereo not shown) [Example 6.14, 3-(2-Butyl-5-Methyl-4-Oxo-4H-Quinazolin-3-yl)-Piperidine-2,6-Dione]
275 to 277	Cc1nc2cccc(NC(=O)CCl)c2c(=O)n1C1CCC(=O)NC1=O (stereo not shown) [Example 6.26, 2-Chloro-N-[3-(2,6-Dioxo-Piperidin-3-yl)-2-Methyl-4-Oxo-3,4-Dihydro-Quinazolin-5-yl]-Acetamide]
